Results taken from patent publication US20230257715A1, “COMPOSITIONS AND METHODS FOR REGULATING ENTEROENDOCRINE CELL DIFFERENTIATION AND USES THEREOF” (The Children's Medical Center Corporation, priority 2020, published 2023).
Several values for one entry are separate records, joined by “and”; a condition that tells them apart may be missing. Identical values can stand only once. Entries after “also recorded” stand apart in the source; their conditions may differ.

Tests used:
Type in all cases: cell-based
human duodenal enteroids [1] = test: Immunofluorescence staining of CHGA, percentage of CHGA-positive enteroids
Protocol: Immunofluorescence staining was performed as previously described with minor modifications (Dekkers J F, Alieva M, Wellens L M, et al. Nat Protoc 2019; 14:1l756-1771)^32. Organoids were grown in and isolated from Matrigel® as noted above. 1-3 wells from a 24-well plate were washed in 200 μL of 1× phosphate-buffered saline (PBS) and moved in suspension to a 1.5 mL microcentrifuge tube. Each tube was centrifuged at 800×g for 5 minutes at 4° C. to pellet organoids. PBS was aspirated, and organoids were fixed in 200 μL of 4% paraformaldehyde (PFA) for 20 minutes on ice, shaking. Each tube was centrifuged again as above, and PFA was aspirated. The organoids were then resuspended in 500 μL of 0.3% Triton-X in PBS and moved to a 48-well plate for the remaining steps. The organoids were permeabilized for 30 minutes at room temperature, shaking. Between each step, organoids were allowed to settle to the bottom of each well, the plate was angled, and the solution aspirated by careful pipetting. Organoids were then blocked with 5% bovine serum albumin in PBS for 1.5 hours at room temperature, shaking. This was followed by three five-minute washes in 500 μL of PBS at room temperature, shaking. […]
This technique was adapted from a previously described method (Borten M A, Bajikar S S, Sasaki N, et al. Sci Rep 2018; 8:5319)^69. […] Any remaining clumped enteroids were manually separated prior to quantification. […]

human duodenal enteroids [2] = test: Immunofluorescence staining of lineage markers CK20, MUC2, LYZ in enteroids
Protocol: Immunofluorescence staining was performed as previously described with minor modifications (Dekkers J F, Alieva M, Wellens L M, et al. Nat Protoc 2019; 14:1l756-1771)^32. Organoids were grown in and isolated from Matrigel® as noted above. 1-3 wells from a 24-well plate were washed in 200 μL of 1× phosphate-buffered saline (PBS) and moved in suspension to a 1.5 mL microcentrifuge tube. Each tube was centrifuged at 800×g for 5 minutes at 4° C. to pellet organoids. PBS was aspirated, and organoids were fixed in 200 μL of 4% paraformaldehyde (PFA) for 20 minutes on ice, shaking. Each tube was centrifuged again as above, and PFA was aspirated. The organoids were then resuspended in 500 μL of 0.3% Triton-X in PBS and moved to a 48-well plate for the remaining steps. The organoids were permeabilized for 30 minutes at room temperature, shaking. Between each step, organoids were allowed to settle to the bottom of each well, the plate was angled, and the solution aspirated by careful pipetting. Organoids were then blocked with 5% bovine serum albumin in PBS for 1.5 hours at room temperature, shaking. This was followed by three five-minute washes in 500 μL of PBS at room temperature, shaking.
Each well was then incubated in 200 μL of primary antibodies diluted in 5% BSA/0.1% Trition-X in PBS at 4° C. overnight. This was followed by five washes in 500 μL of 0.1% Triton-X in PBS for 15 minutes each at room temperature, shaking. 200 μL of secondary antibodies, including Alexa Fluor 488- or 647-conjugated anti-mouse (Invitrogen, A-21202, or A-31571, 1:400), Alexa Fluor 488-conjugated anti-rat (Invitrogen, A-21208, 1:400), Alexa Fluor 488-conjugated anti-goat (Invitrogen, A-11055, 1:400) or Alexa Fluor 647-conjugated anti-rabbit (Invitrogen, A-31573, 1:400), diluted in 0.1% Triton-X in PBS, which were then added to each well and incubated for two hours at room temperature, shaking. Organoids were then washed as above, then moved to new 1.5 mL centrifuge tubes. […]

human duodenal enteroids [3] = test: qPCR analysis of enteroendocrine and lineage markers in enteroids; conditions: time-course of AS-treated enteroids, RNA every two days
human duodenal enteroids [4] = test: Hormone ELISA (5HT, GIP) of enteroid conditioned media; conditions: last two days of differentiation
Protocol: Hormone quantification for GIP (MilliporeSigma, […]), GLP-1, PYY, and serotonin (Eagle Biosciences/DLD Diagnostika GmbH, SER39-KO1) and were performed using kits and following manufacturer's protocols. For these experiments, organoids were grown in 48-well plates to aid in concentrating the hormone of interest. Conditioned media was taken on day 14 of differentiation. For GIP quantification, Diprotin A (Tocris, 6019, 100 μM), a dipeptidyl peptidase 4 inhibitor, was added daily to the media for the last two days of differentiation to prevent GIP and GLP-1 degradation. For hormone induction studies, forskolin (Fsk) (10 μM) was added to fresh media 24-hours prior to conditioned media being taken. As an additional control, differentiation media not exposed to cells was also evaluated. This value was then subtracted from each experimental sample.

CCn1cc(C(=O)O)c(=O)c2c(N)c(F)c(NC3CCCCC3)cc21 [AS, AS1842856]
CHGA expression by immunofluorescence staining (whole well, qualitative) (human duodenal enteroids [1]; FIG. 5B legend): more
percentage of enteroids containing CHGA+ cells (immunofluorescence) (human duodenal enteroids [1]; enteroids, 14-day protocol): 85% and 82%
lysozyme (LYZ) immunofluorescence staining (human duodenal enteroids [2]): expressed
mucin 2 (MUC2) immunofluorescence staining (human duodenal enteroids [2]): lesser degree
cytokeratin 20 (CK20) immunofluorescence staining (human duodenal enteroids [2]; enterocyte marker): lesser degrees
CHGA and SST transcript levels over time (human duodenal enteroids [3]): detectable transcript levels by the sixth day of differentiation
NEUROD1 and NEUROG3 expression over time (human duodenal enteroids [3]): showed increased expression around the fourth day of differentiation
5HT secretion (ELISA of conditioned media) (human duodenal enteroids [4]): promoted serotonin (5HT) production and secretion; also recorded: higher levels of 5HT secretion than all other conditions
GIP secretion (ELISA of conditioned media) (human duodenal enteroids [4]): no secretion of GIP
